This is an account of results in patent publication US6602708B1, “Neural cultures” (CellFactors plc, priority 1994, dated 2003).

For orientation: Km means the concentration of substrate that gives half-maximal velocity.

Test [1] deals with low-affinity carrier. Put plainly: serotonin uptake by clone 921203-6 cells after shift to 39° C. Type of test: cell-based, rat. Particulars: clone 921203-6, 39° C. The method, then:
Mesencephalic and medullary raphe neural cells from the E12-E13 rat embryo (E1=day of conception) were immortalised using a temperature-sensitive oncogene as described earlier (Stringer et al., 1994). Under permissive conditions, ie in the presence of 5 ng/ml of fibroblast growth factor (FGF)(Sigma, product no. F3391) and at 33° C., the immortalised raphe precursor cells replicate. […] No calcium channels were demonstrable using patch clamp analysis.

The test system of test [2] is raphe clone 1 cells. As to the kind of experiment: raphe clone 1 cells at non-permissive temperature (39° C.), survival and differentiation. In kind it is cell-based, rat. The note with it: plus fibroblast growth factor, up to 72 h.
Description: The above referred to homogeneous population of raphe clone 1 cells can be caused to enter apoptosis using any of the following four methods.
1. Temperature was raised to non-permissive value (39° C.) for up to 72 h, in the presence or absence of fibroblast growth factor or epidermal growth factor. Neural cells developed the ability to take up 5-hydroxytryptophan (5HTP, the precursor of 5HT), 5HT itself, and to decarboxylate 5-hydroxytryptophan to 5HT. […] The 5HT derived from 5HTP was released, although the mechanism of such release is not known.
2. Temperature was raised to non-permissive value (39° C.) for up to 72 h, in the presence of cyclic AMP plus fibroblast growth factor.
3. Temperature was raised to non-permissive value (39° C.) for up to 96 h, in the presence of retinoic acid (10 μM) plus fibroblast growth factor.

Molecules are shown by their SMILES.

Take `NCCc1c[nH]c2ccc(O)cc12` [serotonin, 5-hydroxytryptamine]: in test [1], the Km worked out at 56 µM.
For `Nc1ncnc2c1ncn2[C@@H]1O[C@@H]2COP(=O)(O)O[C@H]2[C@H]1O` [cyclic AMP], in test [2], the “extent of fibre development” value is reported as “increase”.
